# Experimental data published in patent publication US20240165135A1, “COMPOSITIONS AND METHODS FOR THE TREATMENT OF CANCER” (The State of Israel, Ministry of Agriculture & Rural …, priority 2021, published 2024).
# Marks after values point to notes of the source that are not given here.
# Key:
# Type in all cases: cell-based, Human
# A172 cells [1] = assay: Transwell assay, A172 cell invasion; details: 24 hours; F4 12 μg/mL, F5 10 μg/mL, Doxo 0.5 μg/mL
# Protocol: Transwell assay—Cells were seeded in the upper chamber of a 24-well plate containing insert with an 8-μm pore size membrane (BD, Falcon Cat #353097), at a density of 5×10^4 in 250 μL complete medium and were incubated at 37° C. for 60 minutes to recover. Following, cells were treated and incubated for 24 hours followed by viability test with resazurin (AR002, R&D Systems, USA). The inserts were taken out of the medium, the inner part was wiped using a cotton swab to remove the detached cells. The inserts were transferred into a new 24-well plate, fixated using 70% ethanol for 10 minutes and dried for 50 minutes, followed by staining in 400 μL of 0.2% crystal violet, washing with PBS, and drying for 5 minutes. Cells stained underneath the membrane were counted in inverted microscope in 3-5 different fields.
# A172 cells [2] = assay: Cell cycle analysis, PI staining, FACS, A172; details: 24 hours; SM 10 μg/mL, Doxo 0.5 μg/mL; control 10.2%
# Protocol: Cell cycle analysis—A172 cells were seeded in 6-well TC plate at a concentration of 4×10^5 cells in 2 mL of SFM per well. Following 24 hours incubation, cells were treated with indicated treatments in complete medium for 24 hours. Methanol and doxorubicin were used as negative and positive controls, respectively. Cells were harvested and centrifuged for 5 minutes at 1600 rpm. Cell pellets were washed once with 1 mL of PBS and fixed with 70% cold ethanol overnight at −20° C. The fixed cells were washed twice with 1 mL of PBS and stained with 250 μL of PI solution (50 μg/mL) containing RNase A (100 μg/mL) for 30 minutes in dark conditions. 250 μL PBS was added to each tube and the cells were analyzed using FACS.
# A172 cells [3] = assay: Scratch-wound assay, A172 cell migration; details: 36 hours; F4 20, F4-SM 11.5, F5 20, F5-SM 11.5, Doxo 0.5 μg/mL
# Protocol: Scratch-wound assay—A172 cells were seeded in a 96-well plate at a density of 2×10^4 per well in 100 μL of complete medium. Following 24 hours, cells in each well were scratched perpendicularly across the center of the well with a 200 μL pipette tip to produce a cell-free area for investigating the ability of the cells to migrate and close the gap under different treatments. Immediately following scratching, 100 μL of treatment solution was added. Photos were taken by a CARL ZEISS inverted microscope coupled with a camera at 0, 14, 20, and 36 hours following scratching, and the gap area was measured using ImageJ (version 1.53a). The scratch area, indicated by cells migrated into the scratch was calculated as percent of scratch area at time x from time 0: […]
# A172 cells [4] = assay: F-actin staining, confocal imaging of A172 cytoskeleton; details: 24 hours; F4 12 μg/mL, F5 10 μg/mL, Doxo 0.5 μg/mL
# Protocol: Cell staining—EasyProbes™ ActinRed 555 Stain was used for F-actin staining and Hoechst 33342 (ABP Biosciences, USA) for nuclei staining, according to the manufacturer's instructions. Briefly, cells were seeded on confocal dishes (D35-20-1.5-N, Cellvis, USA) at a density of 2×10^4 in 500 μL complete medium. Following 24 hours incubation, the indicated treatments at different concentrations were added for additional 24 hours. For the staining process, cells were washed with PBS and fixed with 3.7% formaldehyde solution in PBS and incubated at room temperature for 10 minutes followed by incubation in 0.1% Triton X-100 (T8787; Sigma Aldrich, USA) for 5 minutes, washing with PBS and incubation in 1% BSA (A7284; Sigma Aldrich, USA) solution for 30 minutes. Two drops of EasyProbes™ Actin and of Hoechst were applied to each of the samples for 20 minutes. […] The number of F-actin filaments was quantified as the number of filaments that crosse a line that is drawn electronically across the soma. Percentage of filaments in the different treatments was calculated out of the average number of filaments in the control.
# U87 cells = assay: 3D models (hydrogel) of U87 cells: colonies and Alamar Blue viability; details: U87 from 3D structures, 48 hours; Doxorubicin 2, F4 20, F4-SM 12.5, F5 16.5, F5-SM 10 μg/ml; control 98.52
# Protocol: 3D models—Hydrogels (AGFCH) included Sigma-Aldrich products and were prepared using alginate (W201502; Sigma-Aldrich, USA) 22.5 mg/mL, gelatin (G9764; Bio-Basic, USA) 45 mg/mL, fibrinogen (F38791; Sigma-Aldrich, USA) 50 mg/mL, collagen (C9791; Sigma-Aldrich, USA) 2.2 mg/mL and hyaluronic acid (O8185; Sigma-Aldrich, USA) 2 mg/mL in PBS-glycerol solvent. The gel (AGFCH) was mixed with U87 cells at a concentration of 2×10^6 cells per 400 μL gel. The solutions were mixed gently and transferred as 25 μL of gel solution to a 24-well plate. 3D models were cross-linked using CaCl2 (A610050; Bio-Basic, USA) and thrombin (SRP6557; Sigma-Aldrich, USA) for 5 minutes, following the 3D structure was washed with PBS and then immersed in 1 mL of EMEM complete medium. Cells in the 3D structures were allowed to grow for 2 days and then the indicated treatments were administered for 8 days (treatments were repeated every 2 days). Structures were stained using EasyProbe Hoechst, as described above. To assess cell viability, the 3D structure was digested using 200 μL of 0.05M sodium citrate (C3434; Sigma-Aldrich, USA) and 0.05M EDTA (03-052-1A; Biological Industries, Israel) solution for 5 minutes. […] Percentage of colony in the different treatments was calculated out of average number of colonies in the control.
compound,measurement,setting,value
COc1cccc2c1C(=O)c1c(O)c3c(c(O)c1C2=O)C[C@@](O)(C(=O)CO)C[C@@H]3O[C@H]1C[C@H](N)[C@H](O)[C@H](C)O1 [Doxorubicin],reduction of cell invasion relative to vehicle control,A172 cells [1],22.5%
same,percentage of cells in the G2-M phase,A172 cells [2],11.6%
same,inhibition of cell migration in comparison to the vehicle control,A172 cells [3],28.8%
same,F-actin network / structures,A172 cells [4],less pronounced in comparison to that of F4 or F5
same,Mean (% of Live cells),U87 cells,37.22 ± 3.08^c %
